Read-outs that look alike come from different tables or passages of the source.
Columns and labels:
trypsin [1] = target: T1, trypsin (Bos taurus, UniProt P00760); experiment: Activity (IC50) on trypsin; type: biochemical; conditions: stated in words
T1 construct: gene PRSS1
T1 sequence (P00760 24-246): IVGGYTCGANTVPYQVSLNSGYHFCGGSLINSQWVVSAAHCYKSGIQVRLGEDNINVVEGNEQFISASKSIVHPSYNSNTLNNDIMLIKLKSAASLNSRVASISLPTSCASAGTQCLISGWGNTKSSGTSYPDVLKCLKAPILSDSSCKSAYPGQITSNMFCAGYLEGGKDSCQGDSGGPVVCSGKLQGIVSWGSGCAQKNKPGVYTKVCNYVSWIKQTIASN
Description: (§1) Other oral thrombin inhibitors under development than Drug A have been reported to show changes of bioavailability by food intake. […] The above two substances have different activities not only on thrombin but also on trypsin. […] In other words, the bioavailability of S18326 with higher activity on trypsin was more affected by food intake than S31922. […] Its activity on trypsin has not yet been reported, but since it is an ariginine (Arg) derivative like S18326, it is anticipated to have high activity on trypsin. […] The bioavailability of melagatran is affected by food intake because it has a charge in the intestinal pH, and so its membrane permeability is decreased [D. Gustafsson et al., The direct thrombin inhibitor melagatran and its oral prodrug H376/95: Intestinal absorption properties, biochemical and pharmacodynamic effects, Thrombosis Res., 101(2001) 171-181]. In order to improve the decreased membrane permeability, its prodrug was prepared and confirmed to have improved bioavailability and to prevent the bioavailability variance by food intake. However, melagatran is also one in the series of strong basic group, amidine, and thus has a strong inhibitory effect on trypsin.

[2] = Pharmacokinetic test of Drug A in dogs, empty stomach vs after food intake; type: in vivo; conditions: oral
Description: as §1
Drug A is an orally active thrombin inhibitor, and is effective for preventing or treating the formation of thrombus. […]

[3] = Pharmacokinetic test of Drug A in rats, empty stomach vs after food intake; type: in vivo; conditions: oral, absorbed well on an empty stomach
Description: as §1

trypsin [4] = target: T1, trypsin; conditions: cited from earlier work
thrombin = thrombin (Homo sapiens, UniProt P00734); conditions: cited from earlier work
[5] = dogs, oral; cited from earlier work
[6] = rats, oral; cited from earlier work
[7] = humans, oral; cited from earlier work

Molecule	IC50 (trypsin [4]) [nM]	IC50 (thrombin) [nM]	Bioavailability after food intake [5] [%]	Bioavailability on an empty stomach [5] [%]	Change of bioavailability after food intake [7]	other results
N=C(N)c1ccc(CNC(=O)[C@@H]2CCCN2C(=O)[C@H](NCC(=O)O)C(c2ccccc2)c2ccccc2)s1 [Drug A, (2S)-N-{5-[amino(imino)methyl]-2-thienyl}methyl-1-{(2R)-2-[(carboxymethyl)amino]-3,3-diphenylpropanoyl}-2-pyrrolidinecarboxamide]	–	–	–	–	–	Activity on the digestive enzyme trypsin (trypsin [1]): high activity; Bioavailability after food intake relative to empty stomach ([2]; dog, in vivo, solution of Drug A, read-out: Bioavailability after food intake compared with on an empty stomach): 10%; Change of bioavailability when administered after food intake ([2]; absorbed well on an empty stomach): remarkably decreased; Change of bioavailability when administered after food intake [3]: remarkably decreased
CC(=O)N[C@H](Cc1ccccc1)C(=O)N(CC(=O)N[C@@H](CCCN=C(N)N)B(O)O)C1CCCC1 [Example S-18326]	20	3.6	6	27	–	–
R-Piq-Pro-Arg-H	–	–	–	–	remarkably decreased	Change of bioavailability after food intake [6]: remarkably decreased
NCCCCC(NC(=O)C1(C(=O)NCCc2ccccc2)CCCC1)B(O)O (stereo not drawn) [Example S-31922]	340	43	22	36	–	–
N=C(N)c1ccc(CNC(=O)[C@@H]2CCN2C(=O)[C@H](NCC(=O)O)C2CCCCC2)cc1 [melagatran]	–	–	–	–	remarkably decreased	–
